Reference: patent US20030105360A1, “Form a of fluoxetine hydrochloride” (priority 2001, published 2003)

Format: physicochemical
Protocol: Using the appropriately precise DSC method set forth in Example 12 herein, wherein the analysis is conducted at a maximum rate of 1° C. per minute, multiple levels of polymorph Forms A, B, and C each are typically present in fluoxetine hydrochloride API (FIGS. 2 and 4). When such API is prepared via any one of the methods of the present invention, recrystallization, slurry, and compression, and analyzed using said DSC method, a single endotherm occurring at a temperature range from about 155° C. to about 160° C., and more preferably from about 157° C. to about 159° C., confirms the presence of Form A of fluoxetine hydrochloride (FIGS. 6 and 8 for the compression and slurry methods, respectively). […] Accordingly, the slurry method for preparing pure and essentially pure Form A is preferred, while the compression method is especially preferred.
Differential Scanning Calorimetry for fluoxetine hydrochloride. The method described in Example 11 was used, except the heating rate was changed from 10° C. per minute to a heating rate of 1° C. per minute from 145° C. to 175° C.

## CNCCC(Oc1ccc(C(F)(F)F)cc1)c1ccccc1.Cl (racemic) [Form A, (±)-N-methyl-3-phenyl-2-[α,α,α-trifluoro-p-tolyl) oxy] propylamine hydrochloride]
  polymorphic forms found by DSC after storage under accelerated stability conditions: two additional polymorphs of fluoxetine hydrochloride, Forms D and E, were prepared
Pure Form A prepared via recrystallization method, stored at 40° C. and 75% relative humidity, within three days
  polymorphic forms found by DSC thermogram (FIG. 11) after storage: Forms A, D, and E, which formed within three days
